In BindingDB's records for doi:10.1016/j.bmcl.2008.01.016 (Merck Research Laboratories, 2008):

Experiment: Antagonist activity at human CCR2 assessed as inhibition of MCP1-induced monocyte chemotaxis

IC50: 2.5 nM
SMILES: C[C@H]1CN([C@@H]2CC[C@@]3(CCO[C@H]3OCc3cc(F)cc(C(F)(F)F)c3)C2)CC[C@@]12C=Cc1ccccc12
